The record followed here is patent publication US20190316085A1, “Methods Of T-Lymphocyte Expansion” (Cambridge Enterprise Limited, priority 2015, published 2019).

The test system of test [1] is CD8^+ T-lymphocytes. As to the kind of experiment: Glucose, lactate and VEGF measurements in media. The test is classed as cell-based, mouse. The note with it: 0.5 mM, 16 hours. As to the method: Each dot represent one donor mouse n≥16 mice. P-values are shown for each panel; one-way ANOVA for multiple comparisons (A, B and C). n.s.=non significant.
CD8^+ T-cells were expanded for 4 days and then treated for 16 h with S-2HG octyl ester or R-2HG octyl ester. Glucose and lactate levels in culture medium were measured with a Dade-Behring Dimension RXL analyser. Changes in metabolite concentrations relative to fresh media were normalized to viable cell counts. VEGF, IL-2 and IFN-γ protein levels in media were determined using the following kits from MesoScale Discovery: K150BMC-2 for VEGF, K15048D-2 for IFN-γ and K152QQD-2 for IL-2. Values were normalized to viable cell counts.

In a further test the test system is PDH-E1α. As to the kind of experiment: Immunoblot for phospho-PDH E1α (S232) in treated CD8+ T-lymphocytes. The class given is cell-based, mouse. The note with it: 16 hours treatment. As to the method: (§1) FIG. 6A showns immunoblot analysis for HIF-1α, HDAC1, phospho-PDH E1α (S232) and total PDH-E1α in response to increasing concentrations of S-2HG-octyl ester or R-2HG-octyl ester, or 10 mM of the free acid forms of S-2HG or R-2HG for 16 hours. Cells were activated for 48 h with αCD3+αCD28 antibodies and then expanded for a further 4 days in the presence of IL-2 followed by treatment with the indicated concentration of S-2HG-octyl ester or R-2HG octyl ester, or 10 mM of the free acid forms of S-2HG or R-2HG for 16 hours. The arrow indicates HIF-1α protein.
(§2) Nuclear and cytosolic fractions were prepared from cells with the NE-PER kit (Thermo Scientific) and separated by SDS-PAGE. Proteins were transferred to PVDF membranes and then blocked in 5% milk prepared in phosphate-buffered saline (PBS) plus 0.05% Tween 20. Membranes were then incubated with primary antibodies overnight at 4° C. and horseradish peroxidase (HRP)-conjugated secondary antibodies for 1 h the next day. The following primary antibodies were used at a dilution of 1:1000: HIF1α (Novus), HIF2α (Novus), PDH-E1α (Abcam), PDH-E1α pS232 (Calbiochem), LaminB1 (Abcam), HDAC1 (Abcam), β-tubulin (Abcam), 4E-BP1 (Cell Signalling), phospho-4E-BP1 (S65) (Cell Signalling), phospho-4E-BP1 (T37/T46) (Cell Signalling) S6K (Cell Signalling), phopho-S6K (T389) (Cell Signalling), phopho-S6K (S371) (Cell Signalling).
In general terms: Immunoblotting shows a protein as a band on a membrane.

The subject of test [2] is CD8^+ T-lymphocytes. As to the kind of experiment: Proliferation after activation (CFSE dilution, viable cell number). The class given is cell-based, mouse. Conditions: 0.5 mM; for proliferation following activation: with IL-2. As to the method: Data are representative of 4 mice.
Cells were then treated with 0.5 mM S-2HG-octyl ester, 0.5 mM R-2HG-octyl ester or vehicle and counting was performed at indicated time points after initiation of treatment. n=8 mice per condition.
Cells were counted on an ADAM-MC automated cell counter (NanoEnTek) and viability was assessed by the exclusion of propidium iodide. Cell volume was determined using a Z2 Coulter counter (Beckman Coulter).

The next test deals with HIF-1α. As to the kind of experiment: Immunoblot of nuclear fractions for HIF-1α in treated CD8+ T-lymphocytes. Conditions: for abundance of HIF-1α protein at 7 days of continuous treatment: 0.5 mM. The class given is cell-based, mouse. As to the method: as §1
The arrow indicates HIF-2a protein.
as §2

In a further test the test system is human CD8^+ T cells. As to the kind of experiment: Experiments with human CD8+ T cells (CCR7, CD45RO flow cytometry). The class given is cell-based. The note with it: 14 days; 600 μM S-2HG-octyl ester or 800 μM R-2HG-octyl ester versus vehicle. As to the method:
Numbers in dot plots represent the percentage of cells present in the corresponding quadrant defined by CCR7 and CD45RO expression.
Human CD8^+ T cells were magnetically isolated from blood of healthy donors after gradient centrifugation. Incubation with microbeads conjugated to anti-human CD8 antibodies (Miltenyi 130-097-057) was followed by magnetic bead isolation on a MACS column. Purified human CD8^+ T cells were activated with αCD3 and αCD28 coated beads (Dynabeads, 111.61D) and expanded in the presence of recombinant human IL-2 (30 Ul/mL, Roche 11011456001).
Cells were stained and acquired on a Fortessa (BD Biosciences). The following fluorophores and fluorophore-conjugated antibodies were used: anti-CD62L (Biolegend, MEL-14), anti-CD44 (Biolegend, IM7), anti-CD8a (Biolegend, 53-6.7), anti-CD45.1 (Biolegend, A20), anti-CD45.2 (Biolegend, 104), anti-CD127 (Biolegend, A7R34), anti-KLRG1 (Biolegend, 2F1/KLRG1), anti-CD19 (Biolegend, 6D5), anti-Bcl-2 (Biolegend, BCL/10C4), Eomes (eBioscience, Danlimag), PD-1 (Biolegend, 29F.1A12), […], H-2Kb/SIINFEKL Pentamer-PE (Proimmune, F093-2A), CFSE (Life Technologies), LIVE/DEAD Violet (Life Technologies), PI-AnnexinV (Biolegend, 640928), anti-Bcl-xl-PE (Cell Signalling Technologies, 54H6). For staining of nuclear-located marker Eomes, the Transcription Factor Staining Buffer Set (eBioscience) was used, according to the manufacturer's instructions. For staining of intracellular cytokines, OT-I cells were re-stimulated with SIINFEKL peptide for 4 h with GolgiStop solution (BD). For ^1H-NMR experiments, CD8^+ T-lymphocytes were sorted from total splenocytes by immunostaining with anti-mouse CD8-AF647 (Biolegend) on a MoFlo (Beckman Coulter). Cells were then activated and cultured as described above. For staining of human T cells, CD8^+ T cells were incubated at 37 C for 30 minutes in the presence of anti-CCR7 antibody (eBioscience 12-1979-41), followed by staining with anti-CD45RO antibody (Biolegend, UCHL1).
For experiments with human CD8^+ T cells, cells were magnetically isolated, activated and plated at a concentration of 1×10^6 cells per mL in the presence of 30 UI/mL of recombinant human IL-2. […] On day 14, the surface expression of CCR7 and CD45RO on alive CD8^+ cells was measured by flow cytometry.

The next test deals with mTOR. As to the kind of experiment: mTOR signalling immunoblot. The class given is cell-based, mouse. The note with it: 100 μM to 500 μM. As to the method: as §2

Regarding `CCCCCCCCOC(=O)[C@H](O)CCC(=O)O` [R-2HG-octyl ester], in the test with CD8^+ T-lymphocytes [1], the VEGF production entry is “elevated”, the glucose uptake result was “elevated” and the lactate secretion result was “elevated”. In addition, the “phosphorylation of PDH-E1a” value in the test with PDH-E1α is “increased”. Further, in the test on CD8^+ T-lymphocytes [2], the “restriction in proliferation compared with S-2HG-octyl ester” value is reported as “less pronounced” and the proliferation following activation result is on record as “decreasing proliferation”. In addition, in the test with HIF-1α, the “abundance of HIF-1α protein at 7 days of continuous treatment” value was “increase in abundance is seen”. For the same compound, in the test on human CD8^+ T cells, the “expression of CCR7” value is on record as “induced the expression” and the “expression of CD45RO” value is listed as “induced the expression”. Further, in the test on mTOR, the mTOR signalling entry is “does not inhibit”.
In the case of `CCCCCCCCOC(=O)[C@@H](O)CCC(=O)O` [S-2HG-octyl ester, S-2HG octyl ester], in the test on CD8^+ T-lymphocytes [1], the VEGF production result is listed as “elevated”, the glucose uptake result is given as “elevated” and the lactate secretion result is reported as “elevated”. Further, in the test on PDH-E1α, the “phosphorylation of PDH-E1a” value is “increased”. Moreover, the proliferation following activation result in the test on CD8^+ T-lymphocytes [2] is “decreasing proliferation”. Moreover, the “abundance of HIF-1α protein at 7 days of continuous treatment” value in the test with HIF-1α is “increase in abundance is seen”. Besides, the HIF-1α stabilization result with HIF-1α (increasing concentrations of octyl ester, 16 hours, activated CD8+ T-lymphocytes) is “stabilized”. Also, in the test with human CD8^+ T cells, the “expression of CCR7” value is listed as “induced the expression” and the “expression of CD45RO” value is listed as “induced the expression”. Further, the mTOR signalling result in the test on mTOR is reported as “does not inhibit”.
